Here are results for 15 compounds from paper PMC10023787, “Trio-pharmacophore DNA-encoded chemical library for simultaneous selection of fragments and linkers” (Nature Communications, 2023).

Where two headings read alike, the source gives them in different places.

The target in assay [1] is T1, MMP-2 (Homo sapiens, UniProt P08253).
T1 construct: purchased Sino Biological 10082-HNAH
T1 sequence (P08253 110-660): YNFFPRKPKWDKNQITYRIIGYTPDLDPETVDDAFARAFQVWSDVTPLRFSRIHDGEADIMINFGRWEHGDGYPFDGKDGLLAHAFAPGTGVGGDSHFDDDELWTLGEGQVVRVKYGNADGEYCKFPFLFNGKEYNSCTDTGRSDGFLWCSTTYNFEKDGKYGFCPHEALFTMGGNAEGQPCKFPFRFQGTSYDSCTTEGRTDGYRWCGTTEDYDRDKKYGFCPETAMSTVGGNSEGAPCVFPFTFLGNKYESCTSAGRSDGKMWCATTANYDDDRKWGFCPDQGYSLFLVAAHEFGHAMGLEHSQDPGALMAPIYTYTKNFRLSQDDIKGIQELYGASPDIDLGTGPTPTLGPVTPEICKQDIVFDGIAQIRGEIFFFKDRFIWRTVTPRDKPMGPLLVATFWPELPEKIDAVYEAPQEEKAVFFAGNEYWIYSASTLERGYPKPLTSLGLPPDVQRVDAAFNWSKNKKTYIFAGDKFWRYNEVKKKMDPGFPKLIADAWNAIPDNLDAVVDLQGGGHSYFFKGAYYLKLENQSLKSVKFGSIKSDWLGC
The assay can be described thus: MMP-2 inhibition assay (fluorogenic peptide substrate). The format is biochemical. The procedure, abridged: (§1)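 Human proMMP-2 and proMMP-9 were activated with 1 mM APMA (37 °C, 2 h), then used at 6.5 nM (MMP-2) or 10 nM (MMP-9) in Tris/NaCl/CaCl2/Brij 35 buffer, pH 7.5. Enzyme was preincubated with compound 30 min at RT; 25 μM DNP-Pro-Leu-Gly-Met-Trp-Ser-Arg substrate was added and fluorescence (ex 280/em 360 nm) followed 30 min. IC50 from logistic fits of Vmax.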

Assay [2] has as its target T2, MMP-9 (Homo sapiens, UniProt P14780).
T2 construct: purchased Sino Biological 10327-HNAH
The assay can be described thus: MMP-9 inhibition assay (fluorogenic peptide substrate). The arrangement: remaining enzyme activity (% of control): scale not given here. The format is biochemical. The essentials: as §1

[3] abbreviates: mean ± SE; n.d: not detected; Fig. 5d unit inferred, µM; read-out: IC50.
[4] abbreviates: mean ± SE; n.d: not detected; Fig. 5e prints no unit, µM; read-out: IC50.
[5] abbreviates: Figure 5d; fragment combination joined by linker; n.d: not detected; read-out: MMP2 IC50.
Where [6] appears, read: Figure 5d; fragment combination joined by linker; n.d: not detected; read-out: MMP9 IC50.

T2 sequence (P14780 107-707 limits assumed): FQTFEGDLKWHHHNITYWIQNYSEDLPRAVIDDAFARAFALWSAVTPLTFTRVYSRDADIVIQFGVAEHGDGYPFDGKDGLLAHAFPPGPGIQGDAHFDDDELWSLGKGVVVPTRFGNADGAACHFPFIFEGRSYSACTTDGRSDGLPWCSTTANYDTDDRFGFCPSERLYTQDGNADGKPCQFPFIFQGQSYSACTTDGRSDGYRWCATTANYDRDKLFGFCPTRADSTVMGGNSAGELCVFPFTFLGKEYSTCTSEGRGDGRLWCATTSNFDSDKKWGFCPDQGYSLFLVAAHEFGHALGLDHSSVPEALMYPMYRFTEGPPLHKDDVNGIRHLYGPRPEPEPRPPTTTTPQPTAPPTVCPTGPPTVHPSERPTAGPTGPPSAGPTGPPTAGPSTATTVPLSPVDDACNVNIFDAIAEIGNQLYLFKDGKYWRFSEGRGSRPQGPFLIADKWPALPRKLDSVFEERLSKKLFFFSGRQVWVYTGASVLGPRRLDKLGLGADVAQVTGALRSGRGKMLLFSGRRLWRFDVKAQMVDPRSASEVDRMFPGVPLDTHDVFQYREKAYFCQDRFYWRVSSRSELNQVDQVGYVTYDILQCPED

With `O=C(CSCCNC(=O)c1cncc(O)c1)NCC12CC3CC(CC(C3)C1)C2` [66+828 Linker 24], the “remaining activity (%)” value in assay [1] (MMP-2; concentration 0.00858 µM) was 98.41; in assay [1] (MMP-2; concentration 0.0429 µM), 98.85; in assay [1] (MMP-2; concentration 0.21 µM) it was 87.72; in assay [1] (MMP-2; concentration 1.07 µM), 96.38; in assay [1] (MMP-2; concentration 5.36 µM) it was 85.18; in assay [1] (MMP-2; concentration 26.80 µM), 89.19. Further, the “remaining activity (%)” value in assay [1] (MMP-2; concentration 670.10 µM) is 1.11; in assay [1] (MMP-2; concentration […]), 61.21. Also, the figures for the IC50 in assay [1] (setting [3]) and in assay [2] (setting [4]) were 184 ± 17.3 µM and 216 ± 47.3 µM, respectively. For the same compound, the “remaining enzyme activity (% of control)” value in assay [2] (MMP-9; concentration 0.0429 µM) was 93.34; in assay [2] (MMP-9; concentration 0.21 µM) it was 95.33; in assay [2] (MMP-9; concentration 1.07 µM) it was 103.77; in assay [2] (MMP-9; concentration 5.36 µM), 97.03; in assay [2] (MMP-9; concentration 26.80 µM) it was 82.56; in assay [2] (MMP-9; concentration 670.10 µM), 15.33. In addition, the “remaining enzyme activity (% of control)” value in assay [2] (MMP-9; concentration […]) came out at 65.61.
Regarding `O=C(CCC(=O)NCc1c[nH]nn1)NCCOCCOCCNC(=O)CNC(=O)NC12CC3CC(CC(C3)C1)C2` [66+787 Linker 10], the “remaining activity (%)” value in assay [1] (MMP-2; concentration 0.07 µM) came out at 89.74; in assay [1] (MMP-2; concentration 0.33 µM), 85.09; in assay [1] (MMP-2; concentration 1.67 µM), 89.74; in assay [1] (MMP-2; concentration 8.34 µM) it was 82.52; in assay [1] (MMP-2; concentration 41.72 µM), 81.27; in assay [1] (MMP-2; concentration 208.60 µM), 74.95. Further, the results for the “remaining activity (%)” value in assay [1] (MMP-2; concentration 1043.00 µM) and in assay [1] (MMP-2; concentration […]) were 25.65 and 97.97, respectively. In addition, in assay [1] (setting [3]), the IC50 – broadly, the concentration that inhibits the measured activity by half – worked out at 578 ± 96 µM. The “remaining enzyme activity (% of control)” value in assay [2] (MMP-9; concentration 0.07 µM) was found to be 99.26; in assay [2] (MMP-9; concentration 0.33 µM), 98.95; in assay [2] (MMP-9; concentration 1.67 µM), 95.42; in assay [2] (MMP-9; concentration 8.34 µM), 94.84; in assay [2] (MMP-9; concentration 41.72 µM), 86.90; in assay [2] (MMP-9; concentration 208.60 µM), 67.40. Also, the “remaining enzyme activity (% of control)” value in assay [2] (MMP-9; concentration 1043.00 µM) is reported as 51.64.
As to `Cc1cc(=O)[nH]c(-n2nc(C)c(CCC(=O)NCCNC(=O)CC(=O)/C=C/CCCCNC(=O)CCC(=O)NCc3c[nH]nn3)c2C)n1` [693_787 12], the IC50 in assay [1] (setting [5]) came to 68.4 µM; in assay [2] (setting [6]) it was 45.6 µM.
`O=C(CCC(=O)NCc1c[nH]nn1)NCCOCCOCCNC(=O)Cn1cnc2c(oc3ccccc32)c1=O` [182+787 Linker 10]: the “remaining activity (%)” value in assay [1] (MMP-2, concentration 0.0156 µM) worked out at 104.21; in assay [1] (MMP-2, concentration 0.08 µM), 112.47; in assay [1] (MMP-2, concentration 0.39 µM) it was 110.12; in assay [1] (MMP-2, concentration 1.95 µM) it was 98.52; in assay [1] (MMP-2; concentration 9.75 µM), 97.01; in assay [1] (MMP-2; concentration 48.76 µM), 78.57. The “remaining activity (%)” value in assay [1] (MMP-2; concentration 243.80 µM) amounted to 30.14; in assay [1] (MMP-2; concentration 1219.00 µM), 0.00. Further, the 50% inhibitory concentration (IC50) worked out at 137 ± 37.5 µM in assay [1] (setting [3]) and 126 ± 12 µM in assay [2] (setting [4]). For the same compound, the “remaining enzyme activity (% of control)” value in assay [2] (MMP-9, concentration 0.08 µM) was determined as 100.62; in assay [2] (MMP-9, concentration 0.39 µM) it was 94.43; in assay [2] (MMP-9, concentration 1.95 µM), 101.63; in assay [2] (MMP-9, concentration 9.75 µM), 94.48; in assay [2] (MMP-9, concentration 48.76 µM) it was 72.77; in assay [2] (MMP-9, concentration 243.80 µM), 28.00. Also, the “remaining enzyme activity (% of control)” value in assay [2] (MMP-9, concentration 1219.00 µM) worked out at 0.00.
Consider `Cc1cc(=O)[nH]c(-n2nc(C)c(CCC(=O)NCCCCCCCCNC(=O)c3cnc4c(c3)nc(O)n4C)c2C)n1` [693+826 Linker 4], for which the “remaining activity (%)” value in assay [1] (MMP-2; concentration 0.12 µM) stood at 91.52; in assay [1] (MMP-2; concentration 0.49 µM), 100.66; in assay [1] (MMP-2; concentration 1.95 µM), 95.29; in assay [1] (MMP-2; concentration 7.81 µM) it was 98.79; in assay [1] (MMP-2; concentration 31.25 µM), 92.06; in assay [1] (MMP-2; concentration 125.00 µM), 94.34. For the same compound, in assay [1] (MMP-2; concentration 500.00 µM), the “remaining activity (%)” value came to 70.32. Further, the “remaining enzyme activity (% of control)” value is recorded as 100.31 in assay [2] (MMP-9; concentration 0.12 µM); 99.68 in assay [2] (MMP-9; concentration 0.49 µM); 96.18 in assay [2] (MMP-9; concentration 1.95 µM); 93.00 in assay [2] (MMP-9; concentration 7.81 µM); 90.00 in assay [2] (MMP-9; concentration 31.25 µM); 80.00 in assay [2] (MMP-9; concentration 125.00 µM). The “remaining enzyme activity (% of control)” value in assay [2] (MMP-9; concentration 500.00 µM) was found to be 69.08.
Turning to `O=C(Cn1cnc2c(oc3ccccc32)c1=O)NCCOCCOCCNC(=O)c1cncc(O)c1` [182_828 10], the IC50 stood at 43 µM in assay [1] (setting [5]) and 99.6 µM in assay [2] (setting [6]).
With `O=C(CSCCNC(=O)c1cncc(O)c1)NCC12CC3CC(CC(C3)C1)C2` [66_828 24], the IC50 came to 184 µM in assay [1] (setting [5]) and 216 µM in assay [2] (setting [6]).
In the case of `Cn1c(O)nc2cc(C(=O)NCCOCCOCCNC(=O)CNC(=O)NC34CC5CC(CC(C5)C3)C4)cnc21` [66+826 Linker 10], the “remaining activity (%)” value was determined as 101.73 in assay [1] (MMP-2; concentration 0.12 µM); 104.42 in assay [1] (MMP-2; concentration 0.49 µM); 99.57 in assay [1] (MMP-2; concentration 1.95 µM); 96.59 in assay [1] (MMP-2; concentration 7.81 µM); 91.55 in assay [1] (MMP-2; concentration 31.25 µM); 88.04 in assay [1] (MMP-2; concentration 125.00 µM). The “remaining activity (%)” value in assay [1] (MMP-2; concentration 500.00 µM) stood at 85.39. Further, the “remaining enzyme activity (% of control)” value in assay [2] (MMP-9; concentration 0.12 µM) was determined as 99.87; in assay [2] (MMP-9; concentration 0.49 µM) it was 98.00; in assay [2] (MMP-9; concentration 1.95 µM), 97.71; in assay [2] (MMP-9; concentration 7.81 µM), 90.00; in assay [2] (MMP-9; concentration 31.25 µM) it was 87.32; in assay [2] (MMP-9; concentration 125.00 µM) it was 80.00. Besides, the “remaining enzyme activity (% of control)” value in assay [2] (MMP-9; concentration 500.00 µM) was 70.00.
`O=C(/C=C/CCCCNC(=O)c1cncc(O)c1)CC(=O)NCCNC(=O)Cn1cnc2c(oc3ccccc32)c1=O` [182_828 12]: the IC50 amounted to 50.3 µM in assay [1] (setting [5]) and 45.9 µM in assay [2] (setting [6]).
On to `Cc1cc(=O)[nH]c(-n2nc(C)c(CCC(=O)NCCOCCOCCNC(=O)c3cncc(O)c3)c2C)n1` [693_828 10], for which the values for the concentration for half-maximal inhibition (IC50) in assay [1] (setting [5]) and in assay [2] (setting [6]) were 186 µM and 201 µM, respectively.
The like results for `Cc1cc(=O)[nH]c(-n2nc(C)c(CCC(=O)NCCOCCOCCNC(=O)CCC(=O)NCc3c[nH]nn3)c2C)n1` [693_787 10] were, in that order, 171 µM and 230 µM.
The matching figures for `O=C(CNC(=O)NC12CC3CC(CC(C3)C1)C2)NCCOCCOCCNC(=O)c1cncc(O)c1` [66_828 10]: 293 µM and 521 µM.
The like results for `O=C(CSCCNC(=O)Cn1cnc2c(oc3ccccc32)c1=O)NCc1c[nH]nn1` [182_787 24] were, in that order, 45.9 µM and 126 µM.
For the compound `O=C(Cn1cnc2c(oc3ccccc32)c1=O)NCc1c[nH]nn1` [182_787 1], the IC50 in assay [1] (setting [5]) worked out at 95.5 µM; in assay [2] (setting [6]), 143 µM.
The like results for `Cc1cc(=O)[nH]c(-n2nc(C)c(CCC(=O)NCCNC(=O)c3cncc(O)c3)c2C)n1` [693_828 1] were, in that order, 110 µM and 232 µM.
